One data set deals with c-Jun. Put plainly: Western blot for c-Jun in urine exosomes of paracetamol overdose patients. Conditions: following paracetamol-induced liver injury in humans, FIG. 7. The format is in vivo, human. As to the method: (§1) Six normal male volunteers (aged 23-40, MREC ethics approval number 06/MRE00/67) provided urine samples in sterile 50 ml plastic containers. To each urine sample a protease inhibitor was added (50:1 of 1 mM Leupeptin). […] 3 out of 6 of these patients had elevated serum alanine transaminase (ALT) 24 hours after admission indicating significant liver injury. The samples were centrifuged at 15000×g for 15 minutes at 4° C. to pellet the urinary sediment. The ‘15000×g supernatant’ was then centrifuged at 100 000 rpm for 1 hour at 4° C. to obtain low density urinary exosome pellets. The 100 000 rpm supernatant was decanted and replaced with an additional ‘15 000×g supernatant’ and ultracentrifuged again. The ultracentrifugation step was repeated 4-6 more times to harvest the exosome pellets from 18-24 ml of 15 000×g supernatant. Pellets were resuspended in 50 μl isolation solution (10 mM triethanolamine/250 mM sucrose (pH 7.6)).
(§2) The amount of urine and MP protein was determined using the BCA™ Protein Assay Kit (Pierce, USA) and following the manufacturer's instructions. 20 μg of normal urine exosome samples were loaded per well. Loading amounts for each of the paracetemol overdose samples were normalised for urinary creatinine to account for differences in urine concentration. […]
In general terms: Immunoblotting shows a protein as a band on a membrane.

Data set [1] can be described thus: Exosomal protein concentration of urine in paracetamol overdose patients (BCA protein assay). The format is in vivo, human. The conditions noted are these: 4 hours after paracetamol overdose. On the procedure:
as §1, §2

For data set [2] the following is noted: NAC as antidote for APAP overdose; cited from earlier work.

Here are results for 2 molecules from patent publication US8110371B2, “Identifying organ damage” (The University Court of the University of Edinburgh, priority 2007, dated 2012).

In the case of `CC(=O)Nc1ccc(O)cc1` [paracetamol, N-(4-hydroxyphenyl)ethanamide], the “urinary microparticle concentration of C-Jun protein” value in the data set on c-Jun is reported as “increased”. For the same molecule, the “increase in exosomal proteinuria compared to normal” value in data set [1] (pooled sample from 3 patients with organ injury) is on record as roughly 37 fold. Moreover, in data set [1] (pooled samples from 3 patients without organ injury), the “increase in exosomal protein compared to normal healthy individuals” value was “about 7 fold”.
As to `CC(=O)N[C@@H](CS)C(=O)O` [N-acetylcysteine], the “patients with adverse reactions” value in data set [2] is listed as “around 15%”.
